Values of other authors in publication PMC7345095, “New Synthetic Nitro-Pyrrolomycins as Promising Antibacterial and Anticancer Agents” (Antibiotics, 2020).

tested on: Escherichia coli; parameters: method as in PMID 31405863, PMID 15730262; conditions: natural PMs; cited from earlier work

Q: For O=[N+]([O-])c1c([C@@H](O)c2cc(Cl)cc(Cl)c2O)[nH]c(Cl)c1Cl [PM-G], which “MIC against Escherichia coli” value is on record?
A: more than 300 μM

Q: For COc1c(Cl)cc(Cl)cc1[C@H](O)c1[nH]c(Cl)c(Cl)c1[N+](=O)[O-] [PM-H], which “MIC against Escherichia coli” value is on record?
A: more than 300 μM

Q: For COc1c(Cl)cc(Cl)cc1C(=O)c1cc(Cl)c(Cl)[nH]1 [PM-I], which “MIC against Escherichia coli” value is on record?
A: more than 300 μM

Q: Which “MIC against Escherichia coli” value does the source give for COc1c(Cl)cc(Cl)cc1C(=O)c1[nH]c(Cl)c(Cl)c1Cl [PM-J] here?
A: more than 300 μM
